Experimental data from US12344879B2, “Transgenic bacteria with expanded amino acid usage and nucleic acid molecules for use in the same” (BOARD OF REGENTS, THE UNIVERSITY OF TEXAS SYSTEM, priority 2015, dated 2025).
Several values for one entry are separate records, joined by “and”; a condition that tells them apart may be missing. Equal values may be shown once.

Experiments:
[1] = system: E. coli formate dehydrogenase H (FdhH); experiment: Benzyl viologen assay; assay type: cell-based, E. coli DHΔabcF; conditions: FdhH U140TAG or U140S reporter, co-expressed with SelA, anaerobic
Protocol: The tRNA^Sec variant containing the G7-C66:U49-G65:C50-U64 (SEQ ID NO: 18) antideterminant sequence was designated tRNA^SecUx and was compared with the previously designed chimera (tRNA^UTu) and with a tRNA^Sec derivative designed to have an antideterminant region that should tightly bind EF-Tu (tRNA^UG; FIG. 2a). […] The hybrid tRNA^UTu incorporated selenocysteine and could grow on 75 μg·ml^−1. […] To further confirm tRNA^SecUx incorporated selenocysteine in response to amber stop codons, a standard colorimetric assay was employed based on the activity of the endogenous E. coli selenoprotein formate dehydrogenase H (FdhH) (FIG. 2b).
E. coli DH10B cells containing pRSFDuet-1 and pcat-pheS were used as a positive control. DHΔabcF cells harboring p15A-fdhF U140S and pRSF-UX-eSelA, and p15A-fdhF U140X and pRSF-UX-ΔSelA were used as controls for selenocysteine dependent formate dehydrogenase activity. Transformants were grown overnight at 37° C. in LB medium supplemented with 12.5 μg·mL^−1 tetracycline and 50 μg·mL^−1 kanamycin. Overnight cultures were diluted 1/20 in a final volume of 2 ml and incubated for three hours. Cultures were normalized to OD600=0.5 and 5 μl aliquots were dotted on LB agar plates containing 3.75 μg·mL^−1 tetracycline, 12.5 μg·mL^−1 kanamycin, 5 mM sodium formate, 10 μM Na2MoO4, 1 μM Na2SeO3 and 20 μg·mL^−1 L-cysteine. Plates were incubated at 37° C. for 3 h under aerobic conditions and then transferred to anaerobic conditions at 37° C. for 60 h. Upon removal from the anaerobic chamber, plates were immediately overlaid with agar containing 1 mg·mL^−1 benzyl viologen, 250 mM sodium formate and 25 mM KH2PO4 at pH 7.0. Plates were photographed within 1 h of overlaying.

[2] = system: NMC-A β-lactamase reporter (C69X); experiment: NMC-A β-lactamase reporter assay (ampicillin resistance by amber suppression with selenocysteine); assay type: cell-based, E. coli DHΔabc; conditions: DHΔabc; for ampicillin concentration supporting growth (β-lactamase activity): NMC-A C69X reporter, co-expressed with SelA
Source text: A method of genetic selection capable of discriminating different levels of selenocysteine incorporation was developed. To specifically ‘addict’ a reporter protein to selenocysteine rather than serine, the NMC-A β-lactamase from Enterobacter cloacae was used. […] Then cysteine 69 was replaced with an amber stop codon (X69; FIG. 1a) for library selection, hypothesizing that the incorporation of selenocysteine and the formation of a selenyl-sulfhydryl bond would restore activity. (Swardn et al., 1998)
To eliminate any crosstalk between the tRNA^Sec library and the endogenous selenocysteine incorporation machinery, the selA, selB and selC genes (encoding SelA, SelB and tRNA^Sec respectively) were deleted from E. coli DH10B (designated DHΔabc). Cells containing the reporter plasmid pNMC-A C69X and the accessory plasmid pRSF-eSelA (expressing SelA) were transformed with plasmid pMB1-ZU containing the tRNA^Sec antideterminant library. Transformants were plated on media containing a gradient of ampicillin concentrations for selection of mutants capable of selenocysteine-specific suppression. The single colonies that arose covered a range of ampicillin concentrations. […] Of these tRNA^Sec variants, only G7-C66:U49-G65:C50-U64 was detected at the two highest ampicillin concentration (200 and 250 μg·ml^−1).
The tRNA^Sec antideterminant library was generated by enzymatic inverse PCR using oligonucleotide primers (Table 2) to randomize the six positions identified as the main antideterminant for EF-Tu binding. Following self ligation for 16 hours, DNA was ethanol precipitated with GlycoBlue (Ambion) and transformed by electroporation into E. coli DHΔabc containing the plasmids pNMC-A C69X and pRSF-eSelA. Transformants were diluted in 200 ml LB medium containing 12.5 μg·mL^−1 Zeocin, 6.25 μg·mL^−1 tetracycline and 25 μg·mL^−1 kanamycin and incubated overnight. Following overnight growth, cells were diluted 1/50 in LB medium containing 6.25 μg·mL^−1 Zeocin, 3.75 μg·mL^−1 tetracycline, 12.5 μg·mL^−1 kanamycin, 1 μM Na2SeO3 and 20 μg·mL^−1 L-cysteine and incubated for one hour. A series of 250 μl aliquots of cells were plated on LB agar containing 6.25 μg·mL^−1 Zeocin, 3.75 μg·mL^−1 tetracycline, 12.5 […], 1 μM Na2SeO3 and 20 μg·mL^−1 L-cysteine and 50-300 μg·mL^−1 ampicillin in 50 μg·mL^−1 increments. After 20 hours at 37° C. individual colonies were observed on plates containing 50-200 μg·mL^−1 ampicillin. Plasmid DNA was isolated from a selection of colonies from all plates and tRNA^Sec mutations determined by Sanger sequencing.
NotI/NcoI fragments containing tRNA^SecUx were subcloned into pRSF-eSelA to generate pRSF-UX-eSelA. pRSF-U-eSelA variants described in Table 1 were transformed into E. coli DHΔabc containing the reporter plasmid pNMC-A C69TAG. DHΔabc cells containing pNMC-A and pRSFDuet-1 were used as a positive control. DHΔabc cells harboring pNMC-A C69S and pRSF-UX-eSelA, and pNMC-A C69TAG and pRSF-UX-ΔSelA were used as controls for selenocysteine dependent β-lactamase activity. Transformants were cultured overnight in LB medium containing 6.25 μg·mL^−1 tetracycline, 25 μg·mL^−1 kanamycin, 1 μM Na2SeO3 and 20 […]. Following overnight growth, cells were diluted 1/10 in LB medium containing antibiotics, selenite and L-cysteine and incubated for three hours. […]

| Substance | FdhH activity (reduction of benzyl viologen) [1] | ampicillin concentration supporting growth (β-lactamase activity) [2] | ampicillin concentration at which the tRNA variant was detected in library selection ([2]; antideterminant library, pNMC-A C69X, pRSF-eSelA) |
| --- | --- | --- | --- |
| tRNA^SecUx: Evolved E. coli tRNA^Sec variant with the G7-C66:U49-G65:C50-U64 antideterminant sequence and CUA anticodon | produced active FdhH | up to 400 μg·ml^−1 | 200 µg/mL and 250 µg/mL |
| tRNA^UTu (GGAAGATGTGGCCGAGCGGTTGAAGGCACCGGT; expressed or natural sequence) | produced active FdhH | 75 µg/mL | – |
